One test has as its system FXa. The conditions noted are these: Figure 4, design basis; no reference given; cited from earlier work.
For a further test, the target named is T1, human FIIa (Homo sapiens, UniProt P00734).
T1 construct: purchased Hyphen BioMed, Paris, France
Description: Thrombin inhibition in vitro (chromogenic substrate CS-01(38)). The conditions noted are these: tested 10 μM to 100 μM. Format: biochemical. As for the experimental part:
The inhibition of thrombin was measured using human FIIa (Hyphen BioMed, Paris, France) and chromogenic substrate CS-01(38) (Hyphen BioMed, Paris, France) in 384-well microtiter plates at room temperature. […] 2 μL of FIIa (3 NIH/mL), 20 μL of Tris buffer (adjust to pH 7.4 with HCl) containing 0.3 M NaCl and 50 mM Tris and 2 μL of test compound were added to the well, respectively. The negative control was composed of the same mixed solutions except replacing test compound with DMSO. The positive control was composed of the same mixed solutions except replacing test compound with Rivaroxaban. After incubated at 37 °C for 5 min, 3 μL of FIIa substrate solution (4 mM) was added and then incubated at 37 °C for 25 min. The FIIa activity was measured at 405 nm using a SpectraMax M5 (Molecular Devices).

Another test concerns the target T2, human FXa (Homo sapiens, UniProt P00742).
T2 construct: purchased Hyphen BioMed, Paris, France
Briefly: Inhibition of FXa in vitro (chromogenic substrate CS-11(22)). Format: biochemical. The conditions noted are these: for Ki: Km = 2.4; for IC50: chromogenic substrate, 37 °C, pH 7.4. As for the experimental part: The inhibition of FXa was measured using human FXa (Hyphen BioMed, Paris, France) and chromogenic substrate CS-11(22) (Hyphen BioMed, Paris, France) in 384-well microtiter plates at room temperature. […] 2 μL of FXa (56.8 nM), 16 μL of Tris buffer (adjust to pH 7.4 with HCl containing 0.3 M NaCl and 50 mM Tris) and 3 μL of test compound were added to the well, respectively. The negative control was composed of the same mixed solutions except replacing test compound with DMSO. […] After incubated at 37 °C for 5 min, 8 μL of FXa substrate solution (3.5 mM) was added and then incubated at 37 °C for 25 min. The FXa activity was measured at 405 nm using a SpectraMax M5 (Molecular Devices, Sunnyvale, CA, USA). The IC50 was calculated by the software named SPSS (IBM, North Castle, NY, USA) and the Probit function in it.

A further test concerns human plasma. Briefly: Prothrombin time (PT) assay in human plasma. Format: biochemical. The conditions noted are these: concentration doubling prothrombin time. Here is the method:
(§1) A commercially available automatic coagulometer (Steellex Science Instrument Co., Ltd., Beijing, China) was employed to measure PT. The clotting times were also measured using the instrument itself, in accordance with the manufacturer’s instructions. Increasing concentrations of inhibitor or solvent were added to rat (Sprague-Dawley rats, Shanchuanhong Experimental Animals Co., Ltd., Tianjin, China) and human plasma and incubated for 3 min at 37 °C. Prothrombin time (PT) was determined by automatic coagulometer.

Another test has as its system rat plasma. Description: Prothrombin time (PT) assay in rat plasma. Format: biochemical. The conditions noted are these: concentration doubling prothrombin time. As for the experimental part:
as §1

A further test relates to thrombin. Further details: method as in PMID 16305517. The conditions noted are these: read-out: selectivity against thrombin (IC50); cited from earlier work.

T2 sequence (P00742 235-488 limits assumed): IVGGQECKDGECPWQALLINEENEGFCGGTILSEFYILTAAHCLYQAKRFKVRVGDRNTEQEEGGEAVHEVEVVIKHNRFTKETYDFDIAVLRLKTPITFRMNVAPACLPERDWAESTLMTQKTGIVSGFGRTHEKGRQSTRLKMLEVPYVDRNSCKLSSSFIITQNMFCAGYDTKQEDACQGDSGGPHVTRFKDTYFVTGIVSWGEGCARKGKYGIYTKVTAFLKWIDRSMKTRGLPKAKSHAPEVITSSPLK
T2 sequence (P00742 41-179 partner limits assumed): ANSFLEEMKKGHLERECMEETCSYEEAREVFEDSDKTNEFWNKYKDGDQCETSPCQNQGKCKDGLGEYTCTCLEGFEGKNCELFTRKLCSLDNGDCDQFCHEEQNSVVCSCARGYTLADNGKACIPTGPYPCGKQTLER

As a reminder, the IC50 is the point on the concentration scale where inhibition reaches its midpoint. With `COc1ccc(NC(=O)c2ccc(C(=N)N(C)C)cc2)c(C(=O)Nc2ccc(Cl)cn2)c1` [Betrixaban], the IC50 in the test with FXa was […]. The Ki is the dissociation constant of the complex between target and ligand, obtained from inhibition or displacement. For `O=C(Nc1ccccc1C(=O)Nc1ccc(-n2ccccc2=O)cc1)c1ccc(Cl)s1` [Compound 1a, 5-Chloro-N-(2-((4-(2-oxopyridin-1(2H)-yl)phenyl)carbamoyl)phenyl)thiophene-2-carboxamide], the values for the IC50 against human FIIa and at human FXa were over 10 µM and 0.0302 µM, respectively. Moreover, the Ki at human FXa amounted to 0.022 µM. On to `O=C(Nc1ccccc1C(=O)Nc1ccc(-n2ccccc2=O)cc1)c1ccc(F)cc1` [Compound 1b, 2-(4-Fluorobenzamido)-N-(4-(2-oxopyridin-1(2H)-yl)phenyl)benzamide], for which, on human FXa, the IC50 was over 1 µM. The same measure, in the same setting: the result for `O=C(Nc1ccccc1C(=O)Nc1ccc(-n2ccccc2=O)cc1)c1ccc(Cl)cc1` [Compound 1c, 2-(4-Chlorobenzamido)-N-(4-(2-oxopyridin-1(2H)-yl)phenyl)benzamide] reads 0.197 µM. The same measure, in the same setting: to `O=C(Nc1ccc(Cl)cc1C(=O)Nc1ccc(-n2ccccc2=O)cc1)c1ccc(Cl)s1` [Compound 1d, 5-Chloro-N-(4-chloro-2-((4-(2-oxopyridin-1(2H)-yl)phenyl)carbamoyl)phenyl)thiophene-2-carboxamide] belongs 0.43 µM; to `O=C(Nc1ccc(Cl)cc1C(=O)Nc1ccc(-n2ccccc2=O)cc1)c1ccc(F)cc1` [Compound 1e, 5-Chloro-2-(4-fluorobenzamido)-N-(4-(2-oxopyridin-1(2H)-yl)phenyl)benzamide], over 1 µM. The same measure, in the same setting: the result for `O=C(Nc1ccc(Cl)cc1C(=O)Nc1ccc(-n2ccccc2=O)cc1)c1ccc(Cl)cc1` [Compound 1f, 5-Chloro-2-(4-chlorobenzamido)-N-(4-(2-oxopyridin-1(2H)-yl)phenyl)benzamide] reads 0.57 µM. The compound `Cc1ccc(NC(=O)c2ccc(Cl)s2)c(C(=O)Nc2ccc(-n3ccccc3=O)cc2)c1` [Compound 1g, 5-Chloro-N-(4-methyl-2-((4-(2-oxopyridin-1(2H)-yl)phenyl)carbamoyl)phenyl)thiophene-2-carboxami-de] had an IC50 on human FIIa of over 10 µM. On human FXa, this compound showed a Ki of 0.0164 µM and an IC50 of 0.025 µM. For the same compound, the “2 × PT (μM) (Human)” value in the test with human plasma was determined as 12.8 µM. Also, the “2 × PT (μM) (Rat)” value with rat plasma is 19.7 µM.

`Cc1ccc(NC(=O)c2ccc(F)cc2)c(C(=O)Nc2ccc(-n3ccccc3=O)cc2)c1` [Compound 1h, 2-(4-Fluorobenzamido)-5-methyl-N-(4-(2-oxopyridin-1(2H)-yl)phenyl)benzamide] came in with an IC50 against human FXa of over 1 µM.

The compound `Cc1ccc(NC(=O)c2ccc(Cl)cc2)c(C(=O)Nc2ccc(-n3ccccc3=O)cc2)c1` [Compound 1i, 2-(4-Chlorobenzamido)-5-methyl-N-(4-(2-oxopyridin-1(2H)-yl)phenyl)benzamide] showed an IC50 against human FXa of 0.511 µM. `Cc1cccc(C(=O)Nc2ccc(-n3ccccc3=O)cc2)c1NC(=O)c1ccc(Cl)s1` [Compound 1j, 5-Chloro-N-(2-methyl-6-((4-(2-oxopyridin-1(2H)-yl)phenyl)carbamoyl)phenyl)thiophene-2-carboxami-de] gave a 50% inhibitory concentration (IC50) against human FXa of over 1 µM. The same measure, in the same setting: to `Cc1cccc(C(=O)Nc2ccc(-n3ccccc3=O)cc2)c1NC(=O)c1ccc(F)cc1` [Compound 1k, 2-(4-Fluorobenzamido)-3-methyl-N-(4-(2-oxopyridin-1(2H)-yl)phenyl)benzamide] belongs over 1 µM; to `Cc1cccc(C(=O)Nc2ccc(-n3ccccc3=O)cc2)c1NC(=O)c1ccc(Cl)cc1` [Compound 1l, 2-(4-Chlorobenzamido)-3-methyl-N-(4-(2-oxopyridin-1(2H)-yl)phenyl)benzamide], over 1 µM. On the same count and under the same terms, the result for `O=C(Nc1ccccc1C(=O)Nc1ccc(N2CCOCC2=O)cc1)c1ccc(Cl)s1` [Compound 1m, 5-Chloro-N-(2-((4-(3-oxomorpholino)phenyl)carbamoyl)phenyl)thiophene-2-carboxamide] reads 0.317 µM; that for `O=C(Nc1ccccc1C(=O)Nc1ccc(N2CCOCC2=O)cc1)c1ccc(F)cc1` [Compound 1n, 2-(4-Fluorobenzamido)-N-(4-(3-oxomorpholino)phenyl)benzamide], over 1 µM.

Consider `O=C(Nc1ccccc1C(=O)Nc1ccc(N2CCOCC2=O)cc1)c1ccc(Cl)cc1` [Compound 1o, 2-(4-Chlorobenzamido)-N-(4-(3-oxomorpholino)phenyl)benzamide], for which, on human FXa, inhibition was half-maximal at 0.44 µM (IC50).

Consider `O=C(Nc1ccc(Cl)cc1C(=O)Nc1ccc(N2CCOCC2=O)cc1)c1ccc(Cl)s1` [Compound 1p, 5-Chloro-N-(4-chloro-2-((4-(3-oxomorpholino)phenyl)carbamoyl)phenyl)thiophene-2-carboxamide], for which the IC50 against human FXa was determined as 0.111 µM. The same measure, in the same setting: the result for `O=C(Nc1ccc(Cl)cc1C(=O)Nc1ccc(N2CCOCC2=O)cc1)c1ccc(F)cc1` [Compound 1q, 5-Chloro-2-(4-fluorobenzamido)-N-(4-(3-oxomorpholino)phenyl)benzamide] reads over 1 µM; that for `O=C(Nc1ccc(Cl)cc1C(=O)Nc1ccc(N2CCOCC2=O)cc1)c1ccc(Cl)cc1` [Compound 1r, 5-Chloro-2-(4-chlorobenzamido)-N-(4-(3-oxomorpholino)phenyl)benzamide], 0.951 µM. In the case of `Cc1ccc(NC(=O)c2ccc(Cl)s2)c(C(=O)Nc2ccc(N3CCOCC3=O)cc2)c1` [Compound 1s, 5-Chloro-N-(4-methyl-2-((4-(3-oxomorpholino)phenyl)carbamoyl)phenyl)thiophene-2-carboxamide], the IC50 on human FIIa is over 10 µM. In addition, on human FXa, the affinity corresponds to a Ki of 0.0544 µM and the IC50 was 0.071 µM. Moreover, the “2 × PT (μM) (Human)” value with human plasma came out at 10.4 µM. The “2 × PT (μM) (Rat)” value in the test with rat plasma amounted to 24.2 µM.

Compound `Cc1ccc(NC(=O)c2ccc(F)cc2)c(C(=O)Nc2ccc(N3CCOCC3=O)cc2)c1` [Compound 1t, 2-(4-Fluorobenzamido)-5-methyl-N-(4-(3-oxomorpholino)phenyl)benzamide] registered an IC50 against human FXa of over 1 µM. The same measure, in the same setting: the result for `Cc1ccc(NC(=O)c2ccc(Cl)cc2)c(C(=O)Nc2ccc(N3CCOCC3=O)cc2)c1` [Compound 1u, 2-(4-Chlorobenzamido)-5-methyl-N-(4-(3-oxomorpholino)phenyl)benzamide] reads over 1 µM; that for `Cc1cccc(C(=O)Nc2ccc(N3CCOCC3=O)cc2)c1NC(=O)c1ccc(Cl)s1` [Compound 1v, 5-Chloro-N-(2-methyl-6-((4-(3-oxomorpholino)phenyl)carbamoyl)phenyl)thiophene-2-carboxamide], over 1 µM; that for `Cc1cccc(C(=O)Nc2ccc(N3CCOCC3=O)cc2)c1NC(=O)c1ccc(F)cc1` [Compound 1w, 2-(4-Fluorobenzamido)-3-methyl-N-(4-(3-oxomorpholino)phenyl)benzamide], over 1 µM. `Cc1cccc(C(=O)Nc2ccc(N3CCOCC3=O)cc2)c1NC(=O)c1ccc(Cl)cc1` [Compound 1x, 2-(4-Chlorobenzamido)-3-methyl-N-(4-(3-oxomorpholino)phenyl)benzamide] gave an IC50 against human FXa of over 1 µM. With `COc1ccc(C(=O)Nc2cccc(O)c2NC(=O)c2ccc(N3CCCN(C)CC3)cc2)cc1` [Darexaban], the IC50 in the test on FXa is 0.0546 µM.

In the case of `O=C(NC[C@H]1CN(c2ccc(N3CCOCC3=O)cc2)C(=O)O1)c1ccc(Cl)s1` [Rivaroxaban, reference compound], the IC50 in the test with thrombin was over 6.9 µM; in the test on FXa, […]. In addition, in the test with human plasma, the “2 × PT (μM) (Human)” value is 0.2 µM. For the same compound, in the test with rat plasma, the “2 × PT (μM) (Rat)” value is 0.3 µM.

(Values after publication PMC6274369, “Novel Anthranilamide-Based FXa Inhibitors: Drug Design, Synthesis and Biological Evaluation” (Molecules, 2016).)
